# Several values for one entry are separate records, joined by “and”; a condition that tells them apart may be missing. Equal entries are not always repeated.
# Tests used:
# [1] = target: T1, EphA2 (Homo sapiens, UniProt P29317); experiment: EphA2 autophosphorylation on tyrosine 588 in PC3 cells (immunoblot dose-response); format: cell-based; design: EphA2 is the prevalent endogenously expressed EphA receptor in these cells; endogenous in cells; host or cells: PC3 prostate cancer cells
# Method: (§1) (FIG. 2A) Dose-response curves for EphA2 autophosphorylation on tyrosine 588 (pY588; purple) and for downstream inhibition of AKT phosphorylation (magenta). PC3 cells were treated for 15 min with different concentrations of the indicated peptides. […] The graphs show quantifications from multiple blots (averages ±SE; the number of experiments used to generate each curve is shown in Table 3). […] (FIG. 2B) Examples of immunoblots of lysates from PC3 cells treated with the indicated concentrations of representative ligands. […] A white vertical line indicates removal of irrelevant lanes. […] The bars show averages ±SE, and the individual measurements are shown as black dots. […] Plots of Etop versus EC50 for pY588 in FIG. 2D and for pAKT inh in FIG. 2E. Averages ±SE are shown for the peptides and ephrinA1.
# To examine the agonistic properties of the different dimeric peptide ligands, EphA2 autophosphorylation on tyrosine 588 (Y588) was measured, which is indicative of receptor activation and mediates binding of SH2 domain-containing proteins that link EphA2 to various downstream signaling pathways (FIG. 7). For these experiments, PC3 prostate cancer cells were stimulated with the dimeric peptides because EphA2 is the prevalent endogenously expressed EphA receptor in these cells, allowing comparisons with ephrins.
# [2] = target: T1, EphA2; experiment: Bias factor βlig (pY588 versus pAKT inhibition, PC3 cells, reference ephrinA1-Fc); format: cell-based; design: EphA2 is the prevalent endogenously expressed EphA receptor in these cells; endogenous in cells; host or cells: PC3 prostate cancer cells
# Method: FIG. 6 illustrates an example where Ligands can bias EphA2 signaling responses. The bias factor βlig was calculated for the indicated ligands using ephrinA1-Fc as the reference ligand. Statistical significance for the comparison of the different ligands with the reference ligand ephrinA1-Fc (βlig=0) was determined by one sample t test; *, P<0.05; **, P<0.01; ***, P<0.001; ****, P<0.0001.
# FIG. 14A-14E illustrates an example where distinct factors are responsible for EphA2 biased signaling induced by different ligands. (FIG. 14A) Etop values for EphA2 Y588 phosphorylation, as in FIG. 2C. (FIG. 14B) Etop values for inhibition of AKT phosphorylation. (FIG. 14C) Graph of the ratios of the Etop values for EphA2 Y588 phosphorylation and inhibition of AKT phosphorylation, which are used in the βlig calculation. (FIG. 14D) Graph of the ratios of the EC50 values for EphA2 Y588 phosphorylation and inhibition of AKT phosphorylation, which are used in the βlig calculation. (FIG. 14E) Equation used to calculate the bias factor βlig for each ligand. The terms of the equation are rearranged, compared to equation (1) in the Materials and Methods, to better conform to the graphs in FIG. 14A-14D. **, P<0.01; ***, P<0.001; ****, P<0.0001; ns, not significant for the comparison with ephrinA1-Fc by one-way ANOVA and Dunnett's posthoc test.
# The possibility of EphA2 biased signaling by analyzing the dose-response curves obtained with endogenous EphA2 in PC3 cells (FIG. 2A) was explored using approaches developed for GPCRs. This involves using EphA2 Y588 phosphorylation and AKT phosphorylation quantified as a function of ligand concentration to determine and compare the potency (EC50) and efficacy (Etop) for the two responses induced by different ligands. Remarkably, large differences among the ligands in the Etop values for Y588 phosphorylation (FIGS. 2C, 2D and 14A), but not in the Etop values for AKT inhibition (FIGS. 2E and 14B), were observed. In terms of relative efficacies for pY588 and pAKT inhibition, the C-terminally linked dimers and monomeric ligands behave differently from ephrinA1-Fc, while the N-terminally linked dimers and the head-to-tail dimer (8) are similar to ephrinA1-Fc (FIG. 14C). […] Thus, the type of linkage affects EphA2 signaling properties induced by the dimeric peptides.
# The determined EC50 and Etop values allowed us to calculate the bias factor βlig for the two different responses induced by the various ligands relative to ephrinA1-Fc as the reference ligand (FIG. 14E). […] Remarkably, the bias originates from different mechanisms that depend on the class of ligands, with the N-terminally linked and head-to-tail dimers modulating relative potencies and the C-terminally-linked dimers and monomers modulating relative efficacies.
# [3] = target: T2, EphA2 extracellular domain fused to Fc (EphA2-Fc) (Homo sapiens, UniProt P29317); experiment: ELISA: inhibition of ephrinA5-AP binding to immobilized EphA2-Fc; conditions: Table 3; inhibition of EphA2-ephrinA5 interaction; averages ± SD; read-out: ICsa (nM) by ELISA
# T2 construct: immobilized EphA2 extracellular domain fused to the Fc portion of an antibody (EphA2-Fc)
# Source text: FIG. 1A-1C illustrates an example of Potency and selectivity of EphA2-targeting dimeric peptides. (FIG. 1A) ELISAs comparing the ability of the peptides to inhibit binding of ephrin-A5 fused to alkaline phosphatase (ephrinA5-AP) to the immobilized EphA2 extracellular domain fused to the Fc portion of an antibody (EphA2-Fc). The graphs show averages ±SD from triplicate measurements from a representative experiment. IC50 values calculated from the fitted curves in each experiment are shown. Averages of IC50 values obtained from multiple experiments are shown in panel FIG. 1B and Table 3. The 10 nM peptide concentration is outlined in red. (FIG. 1B) Plot of the average IC50 values (listed in Table 3) for different ligands. […] (FIG. 1C) EphrinA5-AP binding to EphA receptors and ephrinB2-AP binding to EphB receptors in the presence of dimeric peptides representing each of the three configurations. Values are normalized to ephrin binding without peptide. The graphs show averages and SDs from triplicate measurements (with each measurement shown as a dot).
# [4] = system: AKT; experiment: Inhibition of AKT phosphorylation on S473 in PC3 cells; format: cell-based
# Method: as §1
# T1 sequence (P29317 24-976): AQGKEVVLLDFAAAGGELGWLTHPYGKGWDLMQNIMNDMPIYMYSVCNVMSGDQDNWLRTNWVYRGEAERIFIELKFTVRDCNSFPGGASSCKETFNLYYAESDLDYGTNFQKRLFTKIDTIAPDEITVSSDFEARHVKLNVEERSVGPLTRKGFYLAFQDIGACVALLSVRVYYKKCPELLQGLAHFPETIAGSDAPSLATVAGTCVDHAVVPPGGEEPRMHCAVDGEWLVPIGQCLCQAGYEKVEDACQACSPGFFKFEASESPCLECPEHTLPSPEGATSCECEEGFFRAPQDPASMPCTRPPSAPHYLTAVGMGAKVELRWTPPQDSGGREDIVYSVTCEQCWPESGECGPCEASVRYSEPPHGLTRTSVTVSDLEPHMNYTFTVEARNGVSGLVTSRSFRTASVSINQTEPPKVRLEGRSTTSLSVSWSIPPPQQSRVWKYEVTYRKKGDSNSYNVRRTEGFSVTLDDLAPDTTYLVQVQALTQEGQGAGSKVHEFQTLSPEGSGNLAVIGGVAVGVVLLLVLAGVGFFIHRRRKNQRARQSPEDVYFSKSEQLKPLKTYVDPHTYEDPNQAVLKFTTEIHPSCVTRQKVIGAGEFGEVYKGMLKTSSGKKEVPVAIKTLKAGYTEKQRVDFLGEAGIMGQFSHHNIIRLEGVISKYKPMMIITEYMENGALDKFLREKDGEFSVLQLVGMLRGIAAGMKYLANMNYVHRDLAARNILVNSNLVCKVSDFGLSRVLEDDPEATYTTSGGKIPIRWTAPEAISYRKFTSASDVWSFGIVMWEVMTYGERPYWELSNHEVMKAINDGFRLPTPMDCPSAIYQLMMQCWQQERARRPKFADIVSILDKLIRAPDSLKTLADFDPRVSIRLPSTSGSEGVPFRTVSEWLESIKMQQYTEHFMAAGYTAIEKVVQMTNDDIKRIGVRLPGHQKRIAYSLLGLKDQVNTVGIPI
# T2 sequence (P29317 24-537 limits assumed): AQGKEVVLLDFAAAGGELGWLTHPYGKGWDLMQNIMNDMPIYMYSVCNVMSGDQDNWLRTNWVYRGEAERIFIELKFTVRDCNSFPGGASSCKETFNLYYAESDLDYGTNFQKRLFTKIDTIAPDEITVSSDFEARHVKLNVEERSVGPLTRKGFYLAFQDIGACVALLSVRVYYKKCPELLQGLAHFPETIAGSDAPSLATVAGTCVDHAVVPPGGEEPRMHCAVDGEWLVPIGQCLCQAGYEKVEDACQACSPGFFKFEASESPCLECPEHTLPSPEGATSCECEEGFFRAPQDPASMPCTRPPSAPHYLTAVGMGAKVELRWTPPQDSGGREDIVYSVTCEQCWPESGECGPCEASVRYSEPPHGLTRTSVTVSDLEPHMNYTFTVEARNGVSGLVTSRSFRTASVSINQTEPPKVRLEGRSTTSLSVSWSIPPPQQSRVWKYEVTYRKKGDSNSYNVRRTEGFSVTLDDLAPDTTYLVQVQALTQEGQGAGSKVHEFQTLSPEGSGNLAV
smiles,measurement,setting,value
"CC(C)C[C@H](NC(=O)[C@H](Cc1c[nH]c2ccccc12)NC(=O)[C@H](C)NC(=O)CNC(=O)[C@@H](N)CSSC[C@H](N)C(=O)NCC(=O)N[C@@H](C)C(=O)N[C@@H](Cc1c[nH]c2ccccc12)C(=O)N[C@@H](CC(C)C)C(=O)N[C@@H](C)C(=O)N[C@@H](Cc1ccc(O)cc1)C(=O)N1CCC[C@H]1C(=O)N[C@@H](CC(=O)O)C(=O)N[C@@H](CO)C(=O)N[C@H](C(=O)N1CCC[C@H]1C(=O)N[C@@H](Cc1ccc(O)cc1)C(=O)N[C@@H](CCCNC(=N)N)C(=O)N1CCC[C@H]1C(=O)N[C@@H](CCCCN)C(=O)O)C(C)C)C(=O)N[C@@H](C)C(=O)N[C@@H](Cc1ccc(O)cc1)C(=O)N1CCC[C@H]1C(=O)N[C@@H](CC(=O)O)C(=O)N[C@@H](CO)C(=O)N[C@H](C(=O)N1CCC[C@H]1C(=O)N[C@@H](Cc1ccc(O)cc1)C(=O)N[C@@H](CCCNC(=N)N)C(=O)N1CCC[C@H]1C(=O)N[C@@H](CCCCN)C(=O)O)C(C)C [compound 5, CGA-WLA-YRPK dimer (N-ter)]",Etop pY588,"[1]; Table 3, 15 min, saturating ligand, pY588/EphA2 normalized to ephrinA1-Fc",0.87 ± 0.04
same,Emax PY588,[1]; ephrinA1Fc = 1.00,0.78 ± 0.025
same,EC50,[1]; read-out: EC50 PY588,0.53 ± 0.07 nM
same,βu (bias factor βlig),"[2]; Table 3, reference ligand ephrinA1-Fc (βlig=0)",066 ± 0.12
same,Blig,"[2]; bias factor, reference ligand ephrinA1Fc",0.81 ± 0.09
same,IC50,[3],0.65 nM and 0.66 nM
same,IC50,[4]; PC3 cells,0.068 ± 0.011 nM
same,EC50,"[4]; Table 3, PC3 cells treated for 15 min, read-out: ECsa pAKT inhlb.",0.09 ± 0.02 nM
same,Etop pAKT inhlb,"[4]; Table 3, PC3 cells, 15 min, 1-pAKT/AKT normalized to cells not treated with ligand",1.0 ± 0.04
